Measurements published in patent US20150004110A1, “NOVEL ANTI-AGING AND DEPIGMENTING COSMETIC COMPOSITIONS” (DIVERCHIM, priority 2011, published 2015).

Columns and labels:
collagen III = assay: Staining and immunolabelling of skin explant sections: collagen III; type: cell-based, human; conditions: treated skin explant sections
Protocol: 1. Preparation of the explants • During abdominoplasty of a person, 45 skin explants were prepared. The explants were put in BEM medium (BIO-EC's Explants Medium) for survival at 37° C. in humid atmosphere, enriched with 5% CO2.
2. Application of the products • The solutions are prepared in DMSO from pure products, in order to obtain final concentrations of […] by incorporating an identical volume of 10 μl in each well and for each treatment. The treatment was carried out in the survival medium on days 0, 1, 2, 5 and 7.
3. Taking samples • On D0, the 3 explants of batch TO were taken and each explant was cut in two. One part was fixed in buffered formol for observation of the general morphology. The other was frozen and stored at −80° C. • On D5 and D9, 3 explants from each batch were taken and treated in the same way.
4. Histological treatment • After fixation for 48 hours in buffered formol, the samples were dehydrated and embedded in paraffin using a Leica 1020 automatic dehydrator. They were embedded according to procedure MO-H-153 using a Leica EG 1160 coating station. Sections of 5 μm were prepared according to procedure MO-H-173 using a Minot-type microtome, Leica RM 2125 and mounted on Superfrost® histological glass slides.
6. Staining and immunolabelling
Immunolabelling will be carried out on sections with the appropriate antibody. […]

[1] = tested on: normal human epidermal keratinocytes; assay: Differential expression PCR arrays (RT-qPCR) of keratinocyte differentiation markers; type: cell-based; conditions: 10 μM
Protocol: The expression of the specific markers was evaluated by RT-qPCR (reverse transcription quantitative polymerase chain reaction) on messenger RNAs extracted from the cell lawns from each treatment. The transcriptomic profile contains 64 genes selected for their importance in keratinocyte differentiation. The PCR reactions (polymerase chain reactions) were carried out by quantitative PCR with the “Light Cycler” system (Roche Molecular System Inc.) according to the procedures recommended by the supplier. Normal human epidermal keratinocytes were incubated in the presence of compound 1 or a reference with calcium chloride. The expression of the specific markers was evaluated by RT-qPCR on the messenger RNAs extracted from the cell lawns from each treatment.

filaggrin = assay: In situ immunolabelling of filaggrin in keratinocytes; type: cell-based; conditions: normal human epidermal keratinocytes
Excerpt: Transglutaminase K, TGK, and filaggrin are two protein markers of epidermal differentiation involved in arrangement of the keratin filaments and formation of the envelope of the stratum corneum.

PPARα (h) = target: T1, PPARα (h) (Homo sapiens, UniProt Q07869); assay: PPARα agonist effect, coactivator Alpha screen; type: biochemical
T1 sequence (Q07869 1-468): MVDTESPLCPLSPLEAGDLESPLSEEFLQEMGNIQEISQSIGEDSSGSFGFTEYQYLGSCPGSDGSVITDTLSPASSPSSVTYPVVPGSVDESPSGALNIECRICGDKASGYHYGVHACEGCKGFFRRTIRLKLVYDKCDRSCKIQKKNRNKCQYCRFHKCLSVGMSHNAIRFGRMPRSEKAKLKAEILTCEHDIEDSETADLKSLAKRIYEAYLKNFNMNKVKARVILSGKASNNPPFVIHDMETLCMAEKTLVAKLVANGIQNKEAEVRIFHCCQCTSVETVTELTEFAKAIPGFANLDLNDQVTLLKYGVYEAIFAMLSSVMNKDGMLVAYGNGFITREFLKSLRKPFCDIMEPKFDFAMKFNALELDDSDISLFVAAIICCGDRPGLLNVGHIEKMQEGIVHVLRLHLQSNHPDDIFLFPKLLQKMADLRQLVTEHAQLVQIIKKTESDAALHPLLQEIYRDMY
Protocol: (§1) The agonist or antagonist activity of compound 1 on the PPAR receptors was tested by fluorescence techniques. • Material and Methods
(§2) The results are expressed as: • percentage of control specific agonist response (measured specific response/control specific agonist response)×100) and • percentage inhibition of the control specific agonist response (100−((measured specific response)/control specific agonist response)×100)) obtained in the presence of compound 1.
(§3) The EC50 values (concentration at which the maximum specific response is 50%) and the IC50 values (concentration at which the maximum control specific agonist response is inhibited by 50%) are determined by non-linear regression analysis of the concentration-response curves with a mean replicated value using adjustment of Hill's equation

PPARδ (h) = target: T2, PPARδ (h) (Homo sapiens, UniProt Q03181); assay: PPARδ antagonist effect, coactivator Alpha screen; type: biochemical
T2 sequence (Q03181 1-441): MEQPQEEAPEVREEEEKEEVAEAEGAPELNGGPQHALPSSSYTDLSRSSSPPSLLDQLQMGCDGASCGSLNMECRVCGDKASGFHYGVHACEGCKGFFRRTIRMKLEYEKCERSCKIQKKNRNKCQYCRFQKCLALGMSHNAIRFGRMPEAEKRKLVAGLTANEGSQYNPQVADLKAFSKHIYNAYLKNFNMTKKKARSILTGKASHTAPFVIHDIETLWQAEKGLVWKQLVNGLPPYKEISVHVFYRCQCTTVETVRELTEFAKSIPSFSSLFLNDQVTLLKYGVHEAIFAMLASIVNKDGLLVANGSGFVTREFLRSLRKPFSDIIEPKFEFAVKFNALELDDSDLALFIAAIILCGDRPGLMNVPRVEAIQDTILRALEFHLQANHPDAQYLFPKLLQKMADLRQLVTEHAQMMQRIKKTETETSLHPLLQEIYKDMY
Protocol: as §1, §2, §3
(§4) For the antagonists, the apparent dissociation constants (KB) were calculated using the modified Cheng-Prusoff equation

PPARγ (h) = target: T3, PPARγ (h) (Homo sapiens, UniProt P37231); assay: PPARγ antagonist effect, coactivator Alpha screen; type: biochemical
T3 construct: Cerep (contract laboratory that ran the assay)
T3 sequence (P37231 1-505): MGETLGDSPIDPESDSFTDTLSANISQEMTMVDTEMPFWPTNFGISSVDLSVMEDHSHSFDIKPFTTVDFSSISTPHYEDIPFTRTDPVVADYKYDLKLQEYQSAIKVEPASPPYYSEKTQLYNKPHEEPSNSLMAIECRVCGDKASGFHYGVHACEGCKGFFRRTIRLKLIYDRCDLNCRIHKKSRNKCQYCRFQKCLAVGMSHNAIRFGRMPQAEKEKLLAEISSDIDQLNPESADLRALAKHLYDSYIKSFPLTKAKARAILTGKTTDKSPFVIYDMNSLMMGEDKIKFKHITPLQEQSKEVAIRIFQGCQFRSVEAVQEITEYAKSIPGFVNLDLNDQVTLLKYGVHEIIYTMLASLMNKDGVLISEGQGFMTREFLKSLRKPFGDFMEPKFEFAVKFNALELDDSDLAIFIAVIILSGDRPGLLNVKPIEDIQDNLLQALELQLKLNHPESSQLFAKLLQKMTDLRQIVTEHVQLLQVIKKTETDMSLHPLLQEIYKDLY
Protocol: as §1, §2, §3, §4

[2] = 10^−5 M, read-out: % Inhibition of control agonist response
[3] = 10^−6 M, read-out: % Inhibition of control agonist response
[4] = 10^−7 M, read-out: % Inhibition of control agonist response

For `Oc1ccccc1CCOc1ccc(F)cc1` [Compound 1, 2-[2-(4-fluoro-phenoxy)-ethyl]-phenol], the “Collagen III in the papillary dermis” value (collagen III) was “very slight densification”, the “Effect on keratinocyte differentiation (conclusion)” value [1] was “pro-differentiating effect” and the “Stimulation of expression of markers involved in lipid synthesis, antimicrobial defence, innate immunity and cell-cell interactions” value ([1]; compared with calcium chloride at 1.5 mM) was “less, but similar to calcium chloride at 1.5 mM”. For the same molecule, the “Protein expression of filaggrin” value (filaggrin) was “concentration-dependent stimulation of protein expression”, the “% Control agonist response” value (PPARα (h); 10^−5 M) was 2% and the “% Control agonist response” value (PPARα (h); 10^−6 M) was 0%. The “% Control agonist response” value (PPARα (h); 10^−7 M) was −1%, the “PPARα agonist activity (conclusion in words)” value (PPARα (h); 10^−7 to 10^−5 M) was “not an agonist” and the inhibition at 10 µM (PPARδ (h); [2]) was -5%. The inhibition at 1 µM (PPARδ (h); [3]) was -2%, the inhibition at 0.1 µM (PPARδ (h); [4]) was 0% and the “PPARδ antagonist activity (conclusion in words)” value (PPARδ (h); 10^−7 to 10^−5 M) was “not an antagonist”. The inhibition at 10 µM (PPARγ (h); [2]) was 0%, the inhibition at 1 µM (PPARγ (h); [3]) was 0% and the inhibition at 0.1 µM (PPARγ (h); [4]) was 3%. The “PPARγ antagonist activity (conclusion in words)” value (PPARγ (h); 10^−7 to 10^−5 M) was “not an antagonist”.
